We go through one compound from ChEMBL document CHEMBL1131737, “An efficient stereoselective synthesis of [3S(1S,9S)]-3-[[[9-(benzoylamino) octahydro-6,10-dioxo-6H-pyridazino-(1,2-a)(1,2)-diazepin-1-yl]-carbonyl ]amino]-4-oxobutanoic acid, an interleukin converting enzyme (ICE) inhibitor” (Bioorg Med Chem Lett, 1999).

Molecules are shown by their SMILES. The source made the active and inactive calls. The calls are words filed in the database; no cut-off is given here.

This assay addresses T1, Caspase-1 (Homo sapiens) (UniProt P29466).
T1 sequence (whole entry): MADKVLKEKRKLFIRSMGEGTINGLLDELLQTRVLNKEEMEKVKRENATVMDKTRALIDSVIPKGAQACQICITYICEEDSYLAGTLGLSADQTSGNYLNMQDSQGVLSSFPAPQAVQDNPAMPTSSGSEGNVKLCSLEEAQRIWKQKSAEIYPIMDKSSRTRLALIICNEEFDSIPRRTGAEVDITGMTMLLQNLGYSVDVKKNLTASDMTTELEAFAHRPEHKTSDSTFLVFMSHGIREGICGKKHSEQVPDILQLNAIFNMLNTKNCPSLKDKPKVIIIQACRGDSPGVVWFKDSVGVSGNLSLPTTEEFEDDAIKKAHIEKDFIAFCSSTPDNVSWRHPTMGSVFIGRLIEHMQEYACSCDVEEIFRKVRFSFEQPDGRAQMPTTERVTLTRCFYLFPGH
The assay can be described thus: Inhibitory activity against IL-1 beta converting enzyme; Active.

`O=C[C@H](CC(=O)O)NC(=O)[C@@H]1CCCN2C(=O)CC[C@H](NC(=O)c3ccccc3)C(=O)N12`: the result was Active.
